{
  "source": "patent US20230035127A1",
  "about": "“CULTURE AND DIFFERENTIATION OF PLURIPOTENT STEM CELLS” (University of Maryland, College Park, priority 2021, published 2023)",
  "key": {"human eiPSCs": {"system": "human eiPSCs", "experiment": "Flow cytometry of protein markers in eiPSC spheroids and cardiac spheroids", "type": "cell-based", "method": "For flow cytometry, the eiPSC spheroids were collected on day 0 and the cardiac spheroids were collected on days 1.5, 2.5, 12.5, 15. The spheroids were dissociated to single cells by 0.25% trypsin for 5 min at 37° C. and then fixed with 75% ethanol at 4° C. overnight. The cells were permeabilized with 0.05% Triton X-100 for 3 min and then rinsed with 1×PBS twice. The cell numbers were adjusted to 1×10^6 cells/tube in 700 μL of saline for each marker. These cells were incubated with primary antibodies including OCT-4 (1:500 dilution, Cell Signaling Technologies), NANOG (1:500 dilution, Cell Signaling Technologies), SSEA-4 (1:500 dilution, Cell Signaling Technologies), BRACHYURY (1:500; Santa Cruz Biotechnology), NKX2.5 (1:500; Santa Cruz Biotechnology), cTnT (1:500 dilution, Cell Signaling Technologies), cTnI (1:500 dilution, Cell Signaling Technologies), α-ACTININ (1:500 dilution; Santa Cruz Biotechnology), MUSASHI-1 (1:500; R&D Systems), and TUJ-1 (1:500; R&D Systems) at 4° C. overnight. Subsequently, the samples were rinsed with 1×PBS thrice before incubation with corresponding secondary antibodies: goat anti-mouse IgG FITC and goat anti-rabbit IgG PE, respectively (1:1000; Invitrogen) for 1 h at RT. The samples were then rinsed with 1×PBS thrice before flow cytometry. The negative controls were the cells incubated with respective primary antibodies as aforementioned (no incubation with a secondary antibody)."}, "IMR90-1 human iPSCs": {"system": "IMR90-1 human iPSCs", "experiment": "3D cardiac differentiation of IMR90-1 iPSCs: beating cardiac spheroids", "type": "cell-based", "conditions": "for percentage of beating IMR90-1 cardiac spheroids: 10 μM RI", "method": "Another commonly utilized iPSC line (IMR90-1) was tested to confirm that the improved cardiac differentiation of iPSCs with low RI for 3D culture before differentiation is not because of the eiPSCs used. The beating of the resultant IMR90-1 cardiac spheroids peaked at ˜98% on day 7.5 with the OBT being synchronized within ˜1 day for the 1 μM RI group (FIG. 19A). […] This was consistent with the flow cytometry data of the cells in the cardiac spheroids collected on day 12.5, showing that 91% and 32% of the cells were positive for the cardiac-specific protein cTnT (that are crucial for beating) in the 1 and 10 μM RI groups, respectively (FIG. 19B-C). Furthermore, cells in the cardiac spheroids that were positive for neural-specific maker MUSASHI were negligible in the 1 μM RI group, while ˜20% cells in the cardiac spheroids from the 10 μM RI group were MUSASHI positive (FIG. 19B-C).\nTo obtain 3D iPSC spheroids, the iPSC colonies under 2D culture at ˜80% confluence were treated with Versene for 2 min, rinsed with PBS, and further detached from the substrate by gentle pipetting. The detached iPSCs were re-suspended in mTeSR1 with Rock inhibitor (Y27632) at 0, 1, 5, or 10 μM. Afterward, the medium was supplemented with 0.35% (v/v) methylcellulose. The cell suspension (12 ml) containing ˜4×10^6 cells was pushed through a cell strainer with 100 μm mesh size. Later, the suspension of iPSC clumps was transferred into a petri dish (diameter: 10 cm) for culture in a humidified incubator at 37° C. and 5% CO2 for 2 days, during which the 2D iPSC clumps grew into 3D iPSC spheroids. Then, the medium was changed to mTeSR1 (supplemented with 0.35% methylcellulose) with no rock inhibitor, to further culture for 2 days before cardiac differentiation. To determine the number of cells per eiPSC spheroid, roughly equal numbers of the spheroids from either the 1 or 10 μM RI group were pooled together and trypsinized to dissociate the cells. The dissociated cells were then resuspended in 1.4 ml of the aforementioned iPSC maintenance medium and the cell number was counted using a hemocytometer. Three independent runs with 282, 260, and 256 spheroids for the 1 μM RI group and 273, 298, and 286 spheroids for the 10 μM RI group were conducted.\nThe eiPSC spheroids obtained after 4 days of culture on day 0 were induced into mesoderm by up-regulation of the Wnt signaling pathway using 8 μM CHIR99021 and 2 μM GSK inhibitor 6-bromoindirubin-3′-oxime (BIO) in the mesoderm induction medium for 1 day. The mesoderm induction medium was a mixture of DMEM/F12 and α-MEM (v/v, 1:1), containing 2% Knockout Serum Replacement (KOSR), 1 mM L-glutamine, 1% MEM non-essential amino acids (NEAA), and 0.1 mM β-mercaptoethanol. […]"}},
  "note": "“Also recorded” adds a separate entry of the source.",
  "data": [
    {"compound": "C[C@@H](N)[C@H]1CC[C@H](C(=O)Nc2ccncc2)CC1.Cl.Cl", "note": "(relative stereo) [RI, (+)-(R)-trans-4-(1-aminoethyl)-N-(4-pyridyl) cyclo-hexanecarboxamide dihydrochloride]", "values": [
      {"measurement": "expression of pluripotency markers OCT-4, NANOG, SSEA-4", "setting": "human eiPSCs; 1 μM RI group versus 10 μM RI group, day 0", "value": "significantly higher"},
      {"measurement": "expression of neural-specific protein markers MUSASHI-1 and TUJ-1", "setting": "human eiPSCs; 1 μM RI, cardiac spheroids day 12.5, dihydrochloride", "value": "negligible; also recorded: negative"},
      {"measurement": "BRACHYURY-positive cells", "setting": "human eiPSCs; 1 μM RI, day 1.5, after CHIR99021 and BIO for 1 day", "value": "~100", "unit": "%"},
      {"measurement": "NKX2.5 expression", "setting": "human eiPSCs; 1 μM RI, day 2.5, after XAV939 and KY02111", "value": "~100", "unit": "%"},
      {"measurement": "cTnI-positive cells", "setting": "human eiPSCs; 1 μM RI, day 12.5", "value": 93.9, "unit": "%"},
      {"measurement": "cells positive for sarcomere-related proteins including α-ACTININ and cTnI", "setting": "human eiPSCs; 1 μM RI, day 12.5", "value": "more than 90%"},
      {"measurement": "α-ACTININ-positive cells", "setting": "human eiPSCs; 1 μM RI, day 12.5", "value": 95, "unit": "%"},
      {"measurement": "expression of ectoderm marker NESTIN", "setting": "human eiPSCs; 1 μM RI, eiPSC spheroids day 0", "value": "negligible"},
      {"measurement": "expression of ectoderm marker NESTIN", "setting": "human eiPSCs; 10 μM RI, eiPSC spheroids after four-day culture (day 0)", "value": 73.1, "unit": "%"},
      {"measurement": "percentage of cTnT-positive cells and mean intensity of cTnT fluorescence staining", "setting": "human eiPSCs; RI from 1 to 5 to 10 μM, cardiac spheroids day 15, dihydrochloride", "value": "decreased with the increase of the RI concentration; also recorded: decreases as the RI treatment concentration increases"},
      {"measurement": "outset beating time (OBT) synchronized within", "setting": "IMR90-1 human iPSCs; 1 μM RI", "value": "≤ 1", "unit": "days"},
      {"measurement": "time within which cardiac spheroids start to beat", "setting": "IMR90-1 human iPSCs; 1 μM RI", "value": "≤ 24", "unit": "h"},
      {"measurement": "percentage of beating IMR90-1 cardiac spheroids", "setting": "IMR90-1 human iPSCs; day 7.5", "value": 11.5, "unit": "%"},
      {"measurement": "percentage of beating IMR90-1 cardiac spheroids", "setting": "IMR90-1 human iPSCs; in a week, day 13.5", "value": 34.1, "unit": "%"}
    ]}
  ]
}
